Results as given in patent US9452037B2, “Delivery of oral care products” (INTERNATIONAL SCIENTIFIC PTY LTD, priority 2010, dated 2016).

Test: Tooth whitening of extracted human teeth with carbamide peroxide gel, delivered passively or with displaced dipolar magnetic elements in motion
Conditions: for relative (%) change in tooth colour (reduction in yellow content), mean: 700 mg of 36% gel, 10 teeth; for relative (%) change in tooth colour (reduction in yellow content), mean / average shift from the yellow spectrum to the white spectrum, mean / change in colour luminosity, mean: 3 minutes daily for 5 days; for average shift from the yellow spectrum to the white spectrum, mean / change in colour luminosity, mean: 36% gel
Protocol: The ability of the devices of the present invention to deliver active agents (carbamide peroxide) through the dentine of teeth was tested.
20 human teeth were donated by a registered oral surgeon and stored in alcohol for 48 hours prior to ultrasonic cleaning and drying using warm air and absorbent paper. Teeth were divided into two groups. 10 teeth were allocated to the active group (exposed to pairs of displaced dipolar magnetic elements in motion) and 10 allocated to the passive delivery group (exposed to materials with no magnetic field but also in motion). Size, colour and degree of degeneration were matched between the groups.
Individual teeth were photographed using controlled light conditions before and after application of Carbamide Peroxide Gel using a 10 megapixel camera (Pentax Optio) digital camera. Commercial digital imaging software (Photoshop CS2 version 9), was used in CMYK mode to degenerate histograms and images of matched regions of enamel in tooth before and after application.
Each tooth was treated using 700 mg of 36% Carbaminde Peroxide based Tooth Whitening gel. This measure of gel was place on the surface of 10 sized matched pairs of displaced dipolar magnetic elements comprising flexible ETP008 magnetic material formed of a parallel linear array of displaced dipolar magnetic elements with common pole pairs of 450 gauss peak flux with a centre to centre spatial separation of 4 mm oscillated by electrical motor at a frequency of 3 Hz [this is also known as the field-in-motion or FIM group, or eM patch group]. The control group was placed on the surface of polystyrene cards and also oscillated at 3 Hz using the same motorized oscillation means. Teeth were placed horizontally into the carbamide peroxide gel mounds ensuring complete contact and coverage. After 3 minutes of exposure, teeth were removed, cleaned and preserved for the following day. This was repeated for 5 consecutive days.
Analysis was conducted using three measures of colour change. Relative change in percentage of yellow in the image, changes in the spectrum shift from yellow to white and in the luminosity level.
Relative change in the percentage of Yellow in the matched regions of enamel was taken as reflecting the change in the colour of the underlying dentin materials. Differences in the relative change in the Yellow spectrum were interpreted as reflecting the different penetrations rates of peroxide delivery through the enamel under active and passive conditions.
Changes in the spectrum medium point reflects change in colour from the yellow towards the white end of the spectrum. Again, differences in spectrum medium point location were interpreted as reflecting the different penetrations rates of peroxide delivery through the enamel under active and passive conditions.
Luminosity was recorded as a measure of brightness with changes reflecting different penetrations rates of peroxide delivery through the enamel under active and passive conditions.

[1] = Magnetic FIM (eM-patch): ETP008 array oscillated at 3 Hz
[2] = Passive: no magnetic field, oscillated at 3 Hz

NC(N)=O.OO [carbamide peroxide]
relative (%) change in tooth colour (reduction in yellow content), mean [1]: 43.98%
average shift from the yellow spectrum to the white spectrum, mean [1]: 36.20
change in colour luminosity, mean [1]: 29.54
average shift from the yellow spectrum to the white spectrum, mean [2]: 27.70
change in colour luminosity, mean [2]: 21.09
relative (%) change in tooth colour (reduction in yellow content), mean (Passive: polystyrene card oscillated at 3 Hz, no magnetic field): 29.58%
greater increase in luminosity than the passive group (magnetic elements in motion vs passive, p=0.023): 40%
greater reduction in yellow content compared to the passive group (magnetic elements in motion vs passive, p=0.025): 49%
average shift from yellow to white spectrum greater than the passive diffusion group (magnetic elements in motion vs passive, p=0.044): 31%
